From paper PMC7181660, “A novel specific PERK activator reduces toxicity and extends survival in Huntington's disease models” (Scientific Reports, 2020)

Columns and labels:
Test in all cases: biochemical
Assay type in all cases: biochemical
[1] = biological target: panel of 391 kinases (Homo sapiens, UniProt O00418); settings: kinase EEF2K, compound at 1 µM, single dose in duplicates, 1 µM ATP
[2] = biological target: panel of 391 kinases (Homo sapiens, UniProt O15264); settings: P38d/MAPK13, MK-28 1 µM, ATP 1 µM
[3] = biological target: panel of 391 kinases (Homo sapiens, UniProt O95819); settings: HGK/MAP4K4, MK-28 1 µM, ATP 1 µM
[4] = biological target: panel of 391 kinases (Homo sapiens, UniProt P07947); settings: YES/YES1, MK-28 1 µM, ATP 1 µM
[5] = biological target: panel of 391 kinases (Homo sapiens, UniProt P08581); settings: c-MET, MK-28 1 µM, ATP 1 µM
[6] = biological target: panel of 391 kinases (Homo sapiens, UniProt P17948); settings: FLT1/VEGFR1, MK-28 1 µM, ATP 1 µM
[7] = biological target: panel of 391 kinases (Homo sapiens, UniProt P21709); settings: EPHA1, MK-28 1 µM, ATP 1 µM
[8] = biological target: panel of 391 kinases (Homo sapiens, UniProt P22455); settings: FGFR4, MK-28 1 µM, ATP 1 µM
[9] = biological target: panel of 391 kinases (Homo sapiens, UniProt P32298); settings: GRK4, MK-28 1 µM, ATP 1 µM
[10] = biological target: panel of 391 kinases (Homo sapiens, UniProt P49841); settings: GSK3b, MK-28 1 µM, ATP 1 µM
[11] = biological target: panel of 391 kinases (Homo sapiens, UniProt P80192); settings: MLK1/MAP3K9, MK-28 1 µM, ATP 1 µM
[12] = biological target: panel of 391 kinases (Homo sapiens, UniProt Q06187); settings: BTK, MK-28 1 µM, ATP 1 µM
[13] = biological target: panel of 391 kinases (Homo sapiens, UniProt Q07912); settings: ACK1, MK-28 1 µM, ATP 1 µM
[14] = biological target: panel of 391 kinases (Homo sapiens, UniProt Q13177); settings: PAK2, MK-28 1 µM, ATP 1 µM
[15] = biological target: panel of 391 kinases (Homo sapiens, UniProt Q13976); settings: PKG1a, MK-28 1 µM, ATP 1 µM
[16] = biological target: panel of 391 kinases (Homo sapiens, UniProt Q15349); settings: RSK3, MK-28 1 µM, ATP 1 µM
[17] = biological target: panel of 391 kinases (Homo sapiens, UniProt Q16654); settings: kinase PDK4/PDKH4, compound at 1 µM, single dose in duplicates, 1 µM ATP
[18] = biological target: panel of 391 kinases (Homo sapiens, UniProt Q86SG6); settings: NEK8, MK-28 1 µM, ATP 1 µM
[19] = biological target: panel of 391 kinases (Homo sapiens, UniProt Q8N568); settings: DCAMKL2, MK-28 1 µM, ATP 1 µM
[20] = biological target: panel of 391 kinases (Homo sapiens, UniProt Q96GD4); settings: Aurora B, MK-28 1 µM, ATP 1 µM
[21] = biological target: panel of 391 kinases (Homo sapiens, UniProt Q96L34); settings: MARK4, MK-28 1 µM, ATP 1 µM
[22] = biological target: panel of 391 kinases (Homo sapiens, UniProt Q9H0K1); settings: SIK2, MK-28 1 µM, ATP 1 µM
[23] = biological target: panel of 391 kinases (Homo sapiens, UniProt Q9H1R3); settings: MLCK2/MYLK2, MK-28 1 µM, ATP 1 µM
[24] = biological target: panel of 391 kinases (Homo sapiens, UniProt Q9NY57); settings: STK32B/YANK2, MK-28 1 µM, ATP 1 µM
[25] = biological target: panel of 391 kinases (Homo sapiens, UniProt Q9P1W9); settings: PIM2, MK-28 1 µM, ATP 1 µM
[26] = biological target: panel of 391 kinases (Homo sapiens, UniProt Q9UL54); settings: TAOK2/TAO1, MK-28 1 µM, ATP 1 µM
[27] = read-out: % Enzyme Activity (relative to DMSO controls)

`CN(/N=C\c1ccc(O)c(O)c1)c1nc(-c2ccccc2)cc(-c2ccccc2)n1` [MK-28] was tested, and the “% Enzyme Activity (relative to DMSO controls)” value [1] was 90.89%, the remaining activity at 1 µM [1, 27] was 91% and the “% Enzyme Activity (relative to DMSO controls)” value [2] was 103.63%. For the same molecule, the remaining activity at 1 µM [2, 27] was 104%, the “% Enzyme Activity (relative to DMSO controls)” value [3] was 95.38% and the remaining activity at 1 µM [3, 27] was 102%. The “% Enzyme Activity (relative to DMSO controls)” value [4] was 96.24%, the remaining activity at 1 µM [4, 27] was 97.6% and the “% Enzyme Activity (relative to DMSO controls)” value [5] was 96.37%. The remaining activity at 1 µM [5, 27] was 102%, the “% Enzyme Activity (relative to DMSO controls)” value [6] was 84.43% and the remaining activity at 1 µM [6, 27] was 84.8%. For the same molecule, the “% Enzyme Activity (relative to DMSO controls)” value [7] was 99.87%, the remaining activity at 1 µM [7, 27] was 102% and the “% Enzyme Activity (relative to DMSO controls)” value [8] was 100.59%. For the same molecule, the remaining activity at 1 µM [8, 27] was 105%, the “% Enzyme Activity (relative to DMSO controls)” value [9] was 97.72% and the remaining activity at 1 µM [9, 27] was 99.2%. The “% Enzyme Activity (relative to DMSO controls)” value [10] was 63.98%, the remaining activity at 1 µM [10, 27] was 70.3% and the “% Enzyme Activity (relative to DMSO controls)” value [11] was 91.08%. For the same molecule, the remaining activity at 1 µM [11, 27] was 91.3%, the “% Enzyme Activity (relative to DMSO controls)” value [12] was 85.19% and the remaining activity at 1 µM [12, 27] was 85.4%. For the same molecule, the “% Enzyme Activity (relative to DMSO controls)” value [13] was 98.95%, the remaining activity at 1 µM [13, 27] was 113% and the “% Enzyme Activity (relative to DMSO controls)” value [14] was 99.51%. The remaining activity at 1 µM [14, 27] was 99.7%, the “% Enzyme Activity (relative to DMSO controls)” value [15] was 86.31% and the remaining activity at 1 µM [15, 27] was 89%. The “% Enzyme Activity (relative to DMSO controls)” value [16] was 100.80%, the remaining activity at 1 µM [16, 27] was 103% and the “% Enzyme Activity (relative to DMSO controls)” value [17] was 97.96%. The remaining activity at 1 µM [17, 27] was 98.2%, the “% Enzyme Activity (relative to DMSO controls)” value [18] was 101.46% and the remaining activity at 1 µM [18, 27] was 101%. The “% Enzyme Activity (relative to DMSO controls)” value [19] was 121.14%, the remaining activity at 1 µM [19, 27] was 122% and the “% Enzyme Activity (relative to DMSO controls)” value [20] was 106.50%. The remaining activity at 1 µM [20, 27] was 107%, the “% Enzyme Activity (relative to DMSO controls)” value [21] was 96.24% and the remaining activity at 1 µM [21, 27] was 99.8%. The “% Enzyme Activity (relative to DMSO controls)” value [22] was 93.76%, the remaining activity at 1 µM [22, 27] was 97.5% and the “% Enzyme Activity (relative to DMSO controls)” value [23] was 95.96%. For the same molecule, the remaining activity at 1 µM [23, 27] was 96.4%, the “% Enzyme Activity (relative to DMSO controls)” value [24] was 100.71% and the remaining activity at 1 µM [24, 27] was 101%. The “% Enzyme Activity (relative to DMSO controls)” value [25] was 99.13%, the remaining activity at 1 µM [25, 27] was 102% and the “% Enzyme Activity (relative to DMSO controls)” value [26] was 107.98%. For the same molecule, the remaining activity at 1 µM [26, 27] was 111%.
